Data from patent US7745422B2, “Bisphosphonate compounds and methods for bone resorption diseases, cancer, bone pain, immune disorders, and infectious diseases” (The Board of Trustees of the University of Illinois, priority 2004, dated 2010).
Read-outs that look alike come from different tables or passages of the source.

Legend:
Vγ2Vδ2 T cells = assay: gammadelta T cell stimulation (TNF-α release assay); format: cell-based, human
From the text: (§1) We then investigated the activity of each compound in inhibiting the FPPS from L. major, in Dictyostelium discoideum growth inhibition and in γδ T cell activation. We used the FPPS from L. major since this enzyme is the putative bisphosphonate target in several trypanosomatid species.

Dictyostelium discoideum = assay: D. discoideum cell growth inhibition; format: cell-based
From the text: as §1

human FPPS = molecular target: T1, human FPPS (Homo sapiens, UniProt P14324); assay: human FPPS assay; format: biochemical; details: Table 4; read-out: (2) human FPPS IC50
T1 sequence (P14324 1-419): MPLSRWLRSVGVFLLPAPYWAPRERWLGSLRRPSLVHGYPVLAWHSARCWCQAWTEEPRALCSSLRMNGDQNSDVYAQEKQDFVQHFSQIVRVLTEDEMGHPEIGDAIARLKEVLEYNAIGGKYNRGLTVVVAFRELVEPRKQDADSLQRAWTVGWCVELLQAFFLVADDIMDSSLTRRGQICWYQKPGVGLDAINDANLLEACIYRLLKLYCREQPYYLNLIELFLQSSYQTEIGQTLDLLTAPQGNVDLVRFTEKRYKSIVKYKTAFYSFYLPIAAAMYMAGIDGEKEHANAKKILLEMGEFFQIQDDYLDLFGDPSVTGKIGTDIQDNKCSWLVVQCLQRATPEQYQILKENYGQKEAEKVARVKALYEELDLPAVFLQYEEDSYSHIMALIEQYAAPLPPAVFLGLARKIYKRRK

[1] = Table 4, read-out: (3) gammadelta T cell stimulation EC50
[2] = Table 4, read-out: (1) D. discoideum IC50
[3] = Table 3, additional testing, read-out: gammadelta T cell stimulation EC50
[4] = Homo sapiens, T-cell, read-out: (3) gammadelta T cell stimulation EC50
[5] = Dictyostelium discoideum, read-out: (1) D. discoideum IC50

| SMILES | EC50 (Vγ2Vδ2 T cells; [1]) | IC50 (Dictyostelium discoideum; [2]) | further results |
| --- | --- | --- | --- |
| O=Cc1ccc[n+](CC(P(=O)([O-])O)P(=O)(O)O)c1 (stereo not drawn) [Compound 525] | 11 µM | 8.4 µM |  |
| CC(C)=CCCC(C)=CCc1ccc[n+](CC(P(=O)([O-])O)P(=O)(O)O)c1 (stereo not drawn) [Compound 601] | 220 µM | 2.4 µM |  |
| O=P([O-])(O)C(C[n+]1ccc2ccccc2c1)P(=O)(O)O (stereo not drawn) [Compound 473] |  | 20 µM | EC50 (Vγ2Vδ2 T cells; [3]): 20.1 µM |
| CCc1ccc[n+](CC(O)(P(=O)([O-])O)P(=O)(O)O)c1 (stereo not drawn) [Compound 444] | 5.1 µM | 5.6 µM | EC50 (Vγ2Vδ2 T cells; TNF-α release, Table 1 and text, read-out: gammadelta T cell stimulation, EC50): 5.1 µM; EC50 (Vγ2Vδ2 T cells; [3]): 2.8 µM; IC50 (Dictyostelium discoideum; cell growth inhibition, Table 1 and text, read-out: D. discoideum IC50): 5.6 µM |
| CCCCCCc1ccc[n+](CC(P(=O)([O-])O)P(=O)(O)O)c1 (stereo not drawn) [Compound 598] | 35 µM | 1.7 µM |  |
| O=Cc1cccc(-c2ccc[n+](CC(P(=O)([O-])O)P(=O)(O)O)c2)c1 (stereo not drawn) [Compound 532] | 41 µM | 4.1 µM |  |
| CCCCc1ccc[n+](CC(P(=O)([O-])O)P(=O)(O)O)c1 (stereo not drawn) [Compound 476] |  | 2.3 µM | EC50 (Vγ2Vδ2 T cells; [3]): 2 µM |
| CCCCOc1ccc(-c2ccc[n+](CC(P(=O)([O-])O)P(=O)(O)O)c2)cc1 (stereo not drawn) [Compound 586] | 90 µM | 6 µM |  |
| O=P([O-])(O)C(C[n+]1cccc(-c2ccc(F)c(F)c2)c1)P(=O)(O)O (stereo not drawn) [Compound 533] | 19 µM |  |  |
| CC(C)C#Cc1ccc[n+](CC(P(=O)([O-])O)P(=O)(O)O)c1 (stereo not drawn) [Compound 602] | 18 µM | 2.04 µM |  |
| CC(C)CCc1ccc[n+](CC(P(=O)([O-])O)P(=O)(O)O)c1 (stereo not drawn) [Compound 603] | 22 µM |  |  |
| CCCOc1cccc(-c2ccc[n+](CC(P(=O)([O-])O)P(=O)(O)O)c2)c1 (stereo not drawn) [Compound 577] | 21 µM | 4.1 µM |  |
| COc1cccc(-c2ccc[n+](CC(P(=O)([O-])O)P(=O)(O)O)c2)c1 (stereo not drawn) [Compound 578] | 20 µM | 4 µM |  |
| O=P([O-])(O)C(O)(C[n+]1ccc(C(F)(F)F)cc1)P(=O)(O)O (stereo not drawn) [Compound 513] | 550 µM | 1500 µM |  |
| CCCCCCCCc1ccc[n+](CC(P(=O)([O-])O)P(=O)(O)O)c1 (stereo not drawn) [Compound 605] | 6 µM |  |  |
| O=P([O-])(O)C(O)(C[n+]1ccc(-c2ccncc2)cc1)P(=O)(O)O (stereo not drawn) [Compound 471] |  |  | (3) gammadelta T cell stimulation EC50 (Vγ2Vδ2 T cells; Table 4): inactive; (1) D. discoideum IC50 (Dictyostelium discoideum; Table 4): inactive |
| CCCCOc1ccc(-c2ccc[n+](CC(O)(P(=O)([O-])O)P(=O)(O)O)c2)cc1 (stereo not drawn) [Compound 600] | 290 µM | 11 µM |  |
| O=P([O-])(O)C(O)(CC[n+]1ccccc1)P(=O)(O)O (stereo not drawn) [Compound 455] | 25 µM | 27 µM |  |
| O=P([O-])(O)C(C[n+]1cccc(Cc2ccccc2)c1)P(=O)(O)O (stereo not drawn) [Compound 480] |  | 3 µM | EC50 (Vγ2Vδ2 T cells; [3]): 68.7 µM |
| O=P([O-])(O)C(C[n+]1ccc(Cc2ccccc2)cc1)P(=O)(O)O (stereo not drawn) [Compound 481] |  | 3.5 µM | EC50 (Vγ2Vδ2 T cells; [3]): 83.4 µM |
| CP(=O)([O-])C(C[n+]1cccc(-c2ccccc2)c1)P(C)(=O)O (stereo not drawn) [Compound 556] | 2300 µM |  | (1) D. discoideum IC50 (Dictyostelium discoideum; Table 4): inactive |
| CCOc1cccc(-c2ccc[n+](CC(P(=O)([O-])O)P(=O)(O)O)c2)c1 (stereo not drawn) [Compound 588] | 120 µM | 3.3 µM | IC50 (human FPPS): 11 µM |
| CCCCOc1cccc(-c2ccc[n+](CC(P(=O)([O-])O)P(=O)(O)O)c2)c1 (stereo not drawn) [Compound 579] | 20 µM | 6 µM |  |
| O=P([O-])(O)C(C[n+]1cc(F)cc(F)c1)P(=O)(O)O (stereo not drawn) [Compound 523] | 11 µM | 4.6 µM |  |
| O=P([O-])(O)C(O)(C[n+]1cccc(C(F)(F)F)c1)P(=O)(O)O (stereo not drawn) [Compound 520] |  |  | EC50 (Vγ2Vδ2 T cells; [4]): 14 µM; IC50 (Dictyostelium discoideum; [5]): 6.3 µM |
| COc1cc[n+](CC(O)(P(=O)([O-])O)P(=O)(O)O)cc1 (stereo not drawn) [Compound 456] | 19 µM | 27 µM |  |
| O=P([O-])(O)C(C[n+]1cccc(F)c1)P(=O)(O)O (stereo not drawn) [Compound 477] |  | 2.7 µM | EC50 (Vγ2Vδ2 T cells; [3]): 1.8 µM; IC50 (human FPPS): 1.4 µM |
| O=P([O-])(O)C(C[n+]1ccc(C(F)(F)F)cc1)P(=O)(O)O (stereo not drawn) [Compound 485] | 370 µM | 58 µM |  |
| O=P([O-])(O)C(O)(C[n+]1cccc(Cl)c1)P(=O)(O)O (stereo not drawn) [Compound 524] |  |  | EC50 (Vγ2Vδ2 T cells; [4]): 10 µM; IC50 (Dictyostelium discoideum; [5]): 2.4 µM |
